Measurements taken from patent US20220324835A1 (Nurix Therapeutics, Inc., priority 2018, published 2022).
Read-outs that look alike come from different tables or passages of the source.

Tests used:
Assay type in all cases: cell-based
primary human NK cells = experiment: NK cell activation assessed by cytokine secretion (coculture with K562 NucRed target cells); conditions: for fold induction at 0.625 µM: 0.625 μM compound; for fold induction at 2.5 µM: 2.5 μM compound
Method in brief: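 Read-out is cytokine secretion (IFNγ, TNFα, MIP1β; ELISA or Luminex) as fold over coculture without inhibitor, >2.0-fold taken as positive. Donor NK cells, IL-2 primed (60 ng/mL) overnight, received compound 1 h ahead (e.g. 0.1–10 μM, DMSO <0.1%) and were mixed 6 h with K562 NucRed targets at e.g. 5:1, 1:1, 1:5.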

primary human B cells = experiment: B cell activation assay (CD69 on anti-IgM stimulated B cells); conditions: AUC of dose response curve (10 μM to 1 nM) of CD69 MFI normalized to DMSO control
Protocol: Peripheral blood mononuclear cells (PBMC) were obtained either: 1) by using Ficoll-Paque™ (GE Healthcare) for separation of peripheral blood hematopoietic cells from buffy coats of healthy human donors; or 2) directly from LeukoPak donations. Human primary B cells were isolated from the PBMCs utilizing negative selection with commercial kits following the manufacturer's protocol (StemCells Catalog #17954) to yield >95% CD20+ cells assessed by flow cytometry. Primary human B cells were plated at 0.7-1×10^5 per well in a 96-well plate with Cbl-b inhibitors over a dose ranging from 10 μM to 1 nM and incubated at 37° C. 5% CO2, with a final DMSO concentration of <0.5%. Cells were stimulated with anti-IgM for 20 hours at 37° C. 5% CO2. Surface activation markers on mature CD20^+ IgD^+ B cells were monitored by FACS using an anti-CD69 antibody (BD Biosciences).
Cbl-b inhibitors were tested to determine their ability to induce or enhance surface expression of cell surface markers on B cells (e.g., CD69), which is indicative of B cell activation.
Readouts were reported as area under curve (AUC) of the dose response curve of CD69 mean fluorescence intensity (MFI) normalized to the DMSO control. Baseline for this study was the measurement obtained from primary human B cells treated with DMSO in the presence of 2.5 μg/mL of anti-IgM-F(ab′)2. […] Compounds were ranked into bins according to their readouts as follows: A indicates ≤0.5, B indicates 0.5-1.00, C indicates 1.01-1.50, and D indicates ≥1.51.

T-cell = experiment: IL-2 secretion from T-cells stimulated with anti-CD3 antibody alone (Biological Example 2); conditions: primary human total T-cells, read-out: IL-2 secretion, Anti-CD3 stimulation, fold change over baseline; for fold induction at 1 µM: 1 μM compound; for fold induction at 8 µM: 8 μM compound
[1] = K562, NK cells cocultured with K562 NucRed, 1:1 E/T, read-out: IFNγ secretion, fold change over baseline
[2] = K562, NK cells cocultured with K562 NucRed, 1:1 E/T, read-out: TNFα secretion, fold change over baseline
[3] = K562, NK cells cocultured with K562 NucRed, 1:1 E/T, 10 μM compound, read-out: IFNγ secretion, fold change over baseline
[4] = K562, NK cells cocultured with K562 NucRed, 1:1 E/T, 10 μM compound, read-out: TNFα secretion, fold change over baseline
[5] = K562, 1:1 E/T, read-out: IFNγ secretion
[6] = K562, 1:1 E/T, read-out: MIP1β secretion
[7] = K562, 1:1 E/T, read-out: TNFα secretion
[8] = K562, 1:1 E/T, 10 μM, read-out: IFNγ secretion
[9] = K562, 1:1 E/T, 10 μM, read-out: MIP1β secretion
[10] = K562, 1:1 E/T, 10 μM, read-out: TNFα secretion
[11] = K562, 5:1 E/T, read-out: IFNγ secretion
[12] = K562, 5:1 E/T, read-out: MIP1β secretion
[13] = K562, 5:1 E/T, read-out: TNFα secretion
[14] = K562, 5:1 E/T, 10 μM, read-out: IFNγ secretion
[15] = K562, 5:1 E/T, 10 μM, read-out: MIP1β secretion
[16] = K562, 5:1 E/T, 10 μM, read-out: TNFα secretion

| SMILES | fold induction at 0.625 µM (primary human NK cells; [1]) | fold induction at 0.625 µM (primary human NK cells; [2]) | fold induction at 2.5 µM (primary human NK cells; [1]) | fold induction at 2.5 µM (primary human NK cells; [2]) | fold induction at 10 µM (primary human NK cells; [3]) | fold induction at 10 µM (primary human NK cells; [4]) | CD69 MFI AUC (primary human B cells) | fold induction at 1 µM (T-cell) | fold induction at 8 µM (T-cell) | other results |
| --- | --- | --- | --- | --- | --- | --- | --- | --- | --- | --- |
| C[C@H](Cc1nncn1C)c1cccc(N2Cc3c(cc(CN4CC[C@](C)(O)C4)cc3C(F)(F)F)C2=O)c1 [Compound 398, 6-(((S)-3-hydroxy-3-methylpyrrolidin-1-yl)methyl)-2-(3-((R)-1-(4-methyl-4H-1,2,4-triazol-3-yl)propan-2-yl)phenyl)-4-(trifluoromethyl)isoindolin-1-one] | 2.01 to 5 | 1.01 to 2 | 2.01 to 5 | 2.01 to 5 | > 5 | 2.01 to 5 | B (B indicates 0.5-1.00) | 0.101 to 0.15 | > 0.201 | – |
| C[C@H](Cc1nncn1C)c1cccc(N2Cc3c(cc(CN4CC[C@H](F)C4)cc3C(F)(F)F)C2=O)c1 [Compound 399, 6-(((S)-3-fluoropyrrolidin-1-yl)methyl)-2-(3-((R)-1-(4-methyl-4H-1,2,4-triazol-3-yl)propan-2-yl)phenyl)-4-(trifluoromethyl)isoindolin-1-one] | 2.01 to 5 | 2.01 to 5 | > 5 | > 5 | > 5 | > 5 | C (C indicates 1.01-1.50) | 0.151 to 0.2 | > 0.201 | fold induction at 1 µM (primary human NK cells; [5]): 2.01 to 5; fold induction at 1 µM (primary human NK cells; [6]): 1.01 to 2; fold induction at 1 µM (primary human NK cells; [7]): 2.01 to 5; fold induction at 10 µM (primary human NK cells; [8]): > 5; fold induction at 10 µM (primary human NK cells; [9]): 1.01 to 2; fold induction at 10 µM (primary human NK cells; [10]): 2.01 to 5; fold induction at 1 µM (primary human NK cells; [11]): 2.01 to 5; fold induction at 1 µM (primary human NK cells; [12]): 1.01 to 2; fold induction at 1 µM (primary human NK cells; [13]): 2.01 to 5; fold induction at 10 µM (primary human NK cells; [14]): > 5; fold induction at 10 µM (primary human NK cells; [15]): 1.01 to 2; fold induction at 10 µM (primary human NK cells; [16]): > 5 |
| C[C@@H](c1cc2c(c(C(F)(F)F)c1)CN(c1cccc(C3(Cc4nncn4C)COC3)c1)C2=O)N1CC[C@H](F)C1 [Compound 412, 6-((S)-1-((S)-3-fluoropyrrolidin-1-yl)ethyl)-2-(3-(3-((4-methyl-4H-1,2,4-triazol-3-yl)methyl)oxetan-3-yl)phenyl)-4-(trifluoromethyl)isoindolin-1-one] | 2.01 to 5 | 2.01 to 5 | 2.01 to 5 | 2.01 to 5 | > 5 | 2.01 to 5 | D (D indicates ≥1.51) | > 0.201 | > 0.201 | – |
| C[C@H](c1cc2c(c(C(F)(F)F)c1)CN(c1cccc(C3(Cc4nncn4C)COC3)c1)C2=O)N1CC[C@H](F)C1 [Compound 413, 6-((R)-1-((S)-3-fluoropyrrolidin-1-yl)ethyl)-2-(3-(3-((4-methyl-4H-1,2,4-triazol-3-yl)methyl)oxetan-3-yl)phenyl)-4-(trifluoromethyl)isoindolin-1-one] | 2.01 to 5 | 2.01 to 5 | > 5 | 2.01 to 5 | > 5 | 2.01 to 5 | C (C indicates 1.01-1.50) | > 0.201 | > 0.201 | – |
| Cn1cnnc1CC1(c2cccc(N3Cc4c(cc(CN5CC(F)C5)cc4C(F)(F)F)C3=O)c2)COC1 [Compound 415, 6-((3-fluoroazetidin-1-yl)methyl)-2-(3-(3-((4-methyl-4H-1,2,4-triazol-3-yl)methyl)oxetan-3-yl)phenyl)-4-(trifluoromethyl)isoindolin-1-one] | 2.01 to 5 | 1.01 to 2 | 2.01 to 5 | 2.01 to 5 | > 5 | 2.01 to 5 | C (C indicates 1.01-1.50) | 0.151 to 0.2 | > 0.201 | – |
| Cn1cnnc1CC1(c2cccc(N3Cc4c(cc(CN5CC[C@H](C#N)C5)cc4C(F)(F)F)C3=O)c2)COC1 [Compound 422, (S)-1-((2-(3-(3-((4-methyl-4H-1,2,4-triazol-3-yl)methyl)oxetan-3-yl)phenyl)-3-oxo-7-(trifluoromethyl)isoindolin-5-yl)methyl)pyrrolidine-3-carbonitrile] | 1.01 to 2 | 1.01 to 2 | 2.01 to 5 | 1.01 to 2 | 2.01 to 5 | 2.01 to 5 | C (C indicates 1.01-1.50) | > 0.201 | > 0.201 | – |
| Cn1cnnc1C(F)(F)[C@](C)(F)c1cccc(N2Cc3c(cc(C(=O)N4CC[C@H](O)C4)cc3C(F)(F)F)C2=O)c1 [Compound 438, 6-((S)-3-hydroxypyrrolidine-1-carbonyl)-2-(3-((R)-1,1,2-trifluoro-1-(4-methyl-4H-1,2,4-triazol-3-yl)propan-2-yl)phenyl)-4-(trifluoromethyl)isoindolin-1-one] | 1.01 to 2 | 1.01 to 2 | 1.01 to 2 | 1.01 to 2 | 2.01 to 5 | 1.01 to 2 | A (A indicates ≤0.5) | 0.101 to 0.15 | > 0.201 | fold induction at 1 µM (primary human NK cells; [5]): < 1; fold induction at 1 µM (primary human NK cells; [6]): < 1; fold induction at 1 µM (primary human NK cells; [7]): 1.01 to 2; fold induction at 10 µM (primary human NK cells; [8]): < 1; fold induction at 10 µM (primary human NK cells; [9]): < 1; fold induction at 10 µM (primary human NK cells; [10]): 1.01 to 2; fold induction at 1 µM (primary human NK cells; [11]): < 1; fold induction at 1 µM (primary human NK cells; [12]): < 1; fold induction at 1 µM (primary human NK cells; [13]): 1.01 to 2; fold induction at 10 µM (primary human NK cells; [14]): 1.01 to 2; fold induction at 10 µM (primary human NK cells; [15]): 1.01 to 2; fold induction at 10 µM (primary human NK cells; [16]): 1.01 to 2 |
| Cn1cnnc1C(F)(F)[C@](C)(F)c1cccc(N2Cc3c(cc(N4CCNCC4)cc3C(F)(F)F)C2=O)c1 [Compound 442, (R)-6-(Piperazin-1-yl)-2-(3-(1,1,2-trifluoro-1-(4-methyl-4H-1,2,4-triazol-3-yl)propan-2-yl)phenyl)-4-(trifluoromethyl)isoindolin-1-one] | 2.01 to 5 | 2.01 to 5 | 2.01 to 5 | 2.01 to 5 | 2.01 to 5 | 1.01 to 2 | B (B indicates 0.5-1.00) | > 0.201 | 0.051 to 0.1 | – |
| Cn1cnnc1C(F)(F)[C@](C)(F)c1cccc(N2Cc3c(cc(CN4CC[C@@H](F)C4)cc3C(F)(F)F)C2=O)c1 [Compound 450] | 2.01 to 5 | 1.01 to 2 | > 5 | 2.01 to 5 | > 5 | 2.01 to 5 | C (C indicates 1.01-1.50) | > 0.201 | > 0.201 | – |
| COC1CN(Cc2cc3c(c(C(F)(F)F)c2)CN(c2cccc([C@@](C)(F)C(F)(F)c4nncn4C)c2)C3=O)C1 [Compound 452, (R)-6-((3-methoxyazetidin-1-yl)methyl)-2-(3-(1,1,2-trifluoro-1-(4-methyl-4H-1,2,4-triazol-3-yl)propan-2-yl)phenyl)-4-(trifluoromethyl)isoindolin-1-one] | > 5 | 1.01 to 2 | > 5 | 2.01 to 5 | > 5 | 2.01 to 5 | D (D indicates ≥1.51) | 0.151 to 0.2 | > 0.201 | – |
